{
  "source": "patent US20250144036A1",
  "about": "“COMPOUNDS AND COMPOSITIONS FOR DELIVERY OF THERAPEUTIC AGENTS” (ModernaTX, Inc., priority 2021, published 2025)",
  "key": {"endothelial cells [1]": {"system": "endothelial cells", "assay": "Expression of tdTomato (Cre mRNA) in endothelial cells following intravenous administration of loaded LNPs (flow cytometry of lung cells)", "type": "in vivo, mice (Ail4)", "conditions": "ionizable lipid/PEG lipid VI-4/PEG-DMG, 30 mol % cationic lipid or none, i.v., 8 days before harvest", "description": "(§1) Reagents: Digestion Media: 3 mg/mL collagenase 1, 0.1 mg/mL DNase I, Dulbecco's Modified Eagle Medium (DMEM); Wash solution: Dulbecco's phosphate-buffered saline (DPBS)+0.5% Bovine Serum Albumin (BSA); FACS Buffer: Flow Cytometry Staining Buffer (eBioscience™, ThermoFisher Scientific).\n(§2) • CD31: General Endothelial Marker; • CD45: Leukocyte Common Marker; • mOX40L: Transmembrane Reporter; • tdTomato: Fluorescence Protein Reporter from Cre-mediated recombination in Ail4 mice.\n(§3) Six-week-old female mice (Ail4) were aged in-house to approximately 7-8 weeks of age. With an n=5 per group, Cre mRNA (i.e., mRNA leading to expression of tdTomato) formulated LNPs were intravenously dosed via the lateral tail vein 8 days before harvest. […] Collected data was analyzed using flow cytometry analysis software (FlowJo™).\n(§4) To assess the delivery of a therapeutic agent comprised in loaded LNPs of the disclosure to endothelial cells, the expression of Cre and mOX40L mRNA encapsulated in loaded LNPs of the disclosure was measured in endothelial cells following administration of the loaded LNPs to Ail4 mice as described in Example 3. […] The expression was evaluated in LNPs comprising 30 mol % of a cationic lipid of Formula (I) and in loaded LNPs not comprising the cationic of Formula (I) (i.e., LNPs not comprising a cationic lipid, or LNPs comprising dioleoyl-3-trimethylammonium propane (DOTAP))."}, "endothelial cells [2]": {"system": "endothelial cells", "assay": "Expression of mOX40L in endothelial cells following intravenous administration of loaded LNPs (flow cytometry of lung cells)", "type": "in vivo, mice (Ail4)", "conditions": "ionizable lipid/PEG lipid VI-4/PEG-DMG, 30 mol % cationic lipid or none, i.v., 24 h after dose", "description": "as §1, §2, §3, §4"}},
  "data": [
    {"smiles": "CCCCCCCC/C=C\\CCCCCCCC(=O)OCC(C[N+](C)(C)C)OC(=O)CCCCCCC/C=C\\CCCCCCCC", "note": "(centres unmarked) [DOTAP, dioleoyl-3-trimethylammonium propane]", "values": [
      {"measurement": "% Endothelial cells Average", "setting": "endothelial cells [1]", "value": 0, "unit": "%"},
      {"measurement": "% Endothelial cells Average", "setting": "endothelial cells [2]", "value": 0, "unit": "%"}
    ]}
  ]
}
